Source: paper PMC11364104, “Discovery of SARS-CoV-2 papain-like protease (PL^pro) inhibitors with efficacy in a murine infection model” (Science Advances, 2024)
pIC50, pKi: −log10 of the molar value.

Columns and labels:
in vitro = conditions: dog, plasma
CYP1A2 = CYP1A2 (Homo sapiens, UniProt P05177); experiment: biochemical
[1] = molecular target: T1, Norepinephrine Transporter (Homo sapiens, UniProt P23975); experiment: CEREP transporters-binding
T1 construct: purchased Eurofins Cerep

[2] = Media binding for in vitro cell systems; assay type: in vitro ADME
Human Thrombin = molecular target: T2, Human Thrombin (Homo sapiens, UniProt P00734); experiment: biochemical
T2 construct: assay run at Reaction Biology Corporation

L-Type Ca (Diltiazem) = experiment: CEREP ion channel-binding; conditions: 30 µM
Human Cathepsin F = molecular target: T3, Human Cathepsin F (Homo sapiens, UniProt Q9UBX1); experiment: biochemical
T3 construct: assay run at BPS Bioscience

Dopamine Transporter = molecular target: T4, Dopamine Transporter (Homo sapiens, UniProt Q01959); experiment: CEREP transporters-binding
T4 construct: purchased Eurofins Cerep

hCoV-229E_PLpro2 = hCoV-229E_PLpro2 (Human coronavirus 229E, UniProt P0C6X1); experiment: biochemical; design: species or system 229E-CoV
[3] = molecular target: T5, human Cav1.2/β2a/α2δ1 calcium channel (Homo sapiens, UniProt Q13936); experiment: hCav1.2 automated patch clamp; assay type: cell-based; conditions: read-out: CaV IC50
T5 construct: assay run at Metrion Biosciences Ltd; host or cells: HEK
Method: 1000 rcf for 2 min and resuspended in CHO-S-SFM II (Gibco) at a density of 3 million cells […]
Ionic currents were evaluated in the whole-cell configuration using the Qube384 automated planar patch clamp platform (Sophion Bioscience A/S, Ballerup, Denmark). QChip 384X plates, containing 10 patch clamp holes per well, were used to maximize success rate, which was routinely > 95%. For hERG experiments, the external solution was composed of (in mM): 140 NaCl, 2 KCl, 2 CaCl2, 1 MgCl2, 10 HEPES, 5 Glucose, pH 7.4, 350 mOsM. The internal solution contained (in mM): 20 KCl, 10 EGTA, 10 HEPES, 120 KF, pH 7.2, 335 mOsM. The hERG current was elicited from a holding potential of -80 mV by a voltage step to +40 mV for 500 ms, followed by a repolarizing ramp to -80 mV at -0.6 mV/ms. […] Peak hERG current was measured during the ramp. […]
This was followed by the addition of increasing concentrations of test compound, with each exposure lasting 5 minutes. Patch clamp data were analyzed using Analyzer Software 6.4.72 (Sophion Bioscience A/S, Ballerup, Denmark). Current amplitudes were determined by averaging the last 4 currents under each test condition. […]
Hz, and hCav1.2 current was measured as the peak current at 0 mV. […]
exposure lasting 5 minutes. Patch clamp data were analyzed using Analyzer Software 6.4.72. Current amplitudes were determined by averaging the last 4 currents under each test condition. […]

[4] = molecular target: T6, Angiotensin Converting Enzyme (Homo sapiens, UniProt P12821); experiment: CEREP enzyme inhibition; assay type: biochemical
T6 construct: purchased Eurofins Cerep

CYP3A4 = CYP3A4 (Homo sapiens, UniProt P08684); experiment: biochemical
Sequence of CYP3A4 (P08684 whole entry): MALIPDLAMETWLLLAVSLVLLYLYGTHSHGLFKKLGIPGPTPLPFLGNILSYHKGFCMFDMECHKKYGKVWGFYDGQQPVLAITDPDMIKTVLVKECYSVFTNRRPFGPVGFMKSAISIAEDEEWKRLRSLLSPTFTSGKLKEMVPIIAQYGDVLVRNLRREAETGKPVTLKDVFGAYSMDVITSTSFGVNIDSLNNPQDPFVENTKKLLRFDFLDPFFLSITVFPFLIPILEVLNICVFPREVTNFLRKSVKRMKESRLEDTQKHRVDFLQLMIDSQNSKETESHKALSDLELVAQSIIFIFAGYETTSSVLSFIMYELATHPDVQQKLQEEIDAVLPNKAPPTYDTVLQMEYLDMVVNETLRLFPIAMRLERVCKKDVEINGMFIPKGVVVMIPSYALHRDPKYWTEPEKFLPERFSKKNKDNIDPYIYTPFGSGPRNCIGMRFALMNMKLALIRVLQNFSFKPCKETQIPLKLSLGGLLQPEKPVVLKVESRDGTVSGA

Sequence of hCoV-229E_PLpro2 (P0C6X1 1663-1914): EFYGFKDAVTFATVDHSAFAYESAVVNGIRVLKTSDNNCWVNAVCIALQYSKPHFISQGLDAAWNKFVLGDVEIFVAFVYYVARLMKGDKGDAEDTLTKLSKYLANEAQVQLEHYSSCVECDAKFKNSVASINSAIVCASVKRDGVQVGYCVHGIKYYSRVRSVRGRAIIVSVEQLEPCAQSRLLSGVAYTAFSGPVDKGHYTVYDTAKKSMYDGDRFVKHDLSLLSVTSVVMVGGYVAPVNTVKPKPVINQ
Sequence of CYP1A2 (P05177 whole entry): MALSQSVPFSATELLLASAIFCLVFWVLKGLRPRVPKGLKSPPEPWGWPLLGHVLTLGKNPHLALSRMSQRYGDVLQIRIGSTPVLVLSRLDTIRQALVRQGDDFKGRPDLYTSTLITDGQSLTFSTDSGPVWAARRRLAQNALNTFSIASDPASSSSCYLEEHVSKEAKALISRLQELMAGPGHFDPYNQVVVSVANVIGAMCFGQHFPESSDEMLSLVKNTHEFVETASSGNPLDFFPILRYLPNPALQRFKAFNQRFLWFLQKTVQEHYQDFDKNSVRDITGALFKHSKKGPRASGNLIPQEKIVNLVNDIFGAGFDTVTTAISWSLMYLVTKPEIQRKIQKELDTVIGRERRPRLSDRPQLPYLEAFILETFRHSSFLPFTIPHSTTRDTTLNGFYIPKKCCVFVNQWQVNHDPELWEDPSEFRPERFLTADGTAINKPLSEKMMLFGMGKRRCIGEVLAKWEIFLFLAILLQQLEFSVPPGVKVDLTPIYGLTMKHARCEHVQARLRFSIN
T1 sequence (P23975 whole entry): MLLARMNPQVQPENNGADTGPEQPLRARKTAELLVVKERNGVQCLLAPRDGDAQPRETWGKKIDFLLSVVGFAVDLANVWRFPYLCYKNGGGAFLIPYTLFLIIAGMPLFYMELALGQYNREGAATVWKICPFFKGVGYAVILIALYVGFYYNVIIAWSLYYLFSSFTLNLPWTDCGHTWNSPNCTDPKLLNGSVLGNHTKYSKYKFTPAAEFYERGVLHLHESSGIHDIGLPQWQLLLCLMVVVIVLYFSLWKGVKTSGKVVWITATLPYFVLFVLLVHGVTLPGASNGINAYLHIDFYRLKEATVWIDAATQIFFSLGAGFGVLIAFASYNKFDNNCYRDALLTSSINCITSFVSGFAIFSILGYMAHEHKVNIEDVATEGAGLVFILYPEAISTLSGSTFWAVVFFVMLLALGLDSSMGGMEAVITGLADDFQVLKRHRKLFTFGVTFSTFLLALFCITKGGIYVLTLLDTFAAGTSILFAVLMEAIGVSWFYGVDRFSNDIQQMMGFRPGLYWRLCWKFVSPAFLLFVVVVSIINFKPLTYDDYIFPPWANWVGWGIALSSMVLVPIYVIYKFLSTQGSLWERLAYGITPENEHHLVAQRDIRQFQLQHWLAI
T4 sequence (Q01959 whole entry): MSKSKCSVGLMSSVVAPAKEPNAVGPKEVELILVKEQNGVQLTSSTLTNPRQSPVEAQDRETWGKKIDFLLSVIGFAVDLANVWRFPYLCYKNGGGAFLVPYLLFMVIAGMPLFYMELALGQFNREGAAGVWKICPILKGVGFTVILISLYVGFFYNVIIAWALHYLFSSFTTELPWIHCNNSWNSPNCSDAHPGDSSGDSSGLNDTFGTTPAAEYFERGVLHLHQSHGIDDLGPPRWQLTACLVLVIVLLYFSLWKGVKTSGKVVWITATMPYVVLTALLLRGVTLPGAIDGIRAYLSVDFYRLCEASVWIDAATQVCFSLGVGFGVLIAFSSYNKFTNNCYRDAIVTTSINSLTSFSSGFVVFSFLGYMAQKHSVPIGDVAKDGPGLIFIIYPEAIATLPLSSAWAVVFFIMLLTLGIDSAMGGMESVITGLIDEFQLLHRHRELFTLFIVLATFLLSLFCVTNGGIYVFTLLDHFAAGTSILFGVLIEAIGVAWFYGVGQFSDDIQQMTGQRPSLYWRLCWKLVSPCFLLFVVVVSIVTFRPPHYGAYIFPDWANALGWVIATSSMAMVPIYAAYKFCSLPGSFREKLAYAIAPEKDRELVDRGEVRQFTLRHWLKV
T6 sequence (P12821 30-1306): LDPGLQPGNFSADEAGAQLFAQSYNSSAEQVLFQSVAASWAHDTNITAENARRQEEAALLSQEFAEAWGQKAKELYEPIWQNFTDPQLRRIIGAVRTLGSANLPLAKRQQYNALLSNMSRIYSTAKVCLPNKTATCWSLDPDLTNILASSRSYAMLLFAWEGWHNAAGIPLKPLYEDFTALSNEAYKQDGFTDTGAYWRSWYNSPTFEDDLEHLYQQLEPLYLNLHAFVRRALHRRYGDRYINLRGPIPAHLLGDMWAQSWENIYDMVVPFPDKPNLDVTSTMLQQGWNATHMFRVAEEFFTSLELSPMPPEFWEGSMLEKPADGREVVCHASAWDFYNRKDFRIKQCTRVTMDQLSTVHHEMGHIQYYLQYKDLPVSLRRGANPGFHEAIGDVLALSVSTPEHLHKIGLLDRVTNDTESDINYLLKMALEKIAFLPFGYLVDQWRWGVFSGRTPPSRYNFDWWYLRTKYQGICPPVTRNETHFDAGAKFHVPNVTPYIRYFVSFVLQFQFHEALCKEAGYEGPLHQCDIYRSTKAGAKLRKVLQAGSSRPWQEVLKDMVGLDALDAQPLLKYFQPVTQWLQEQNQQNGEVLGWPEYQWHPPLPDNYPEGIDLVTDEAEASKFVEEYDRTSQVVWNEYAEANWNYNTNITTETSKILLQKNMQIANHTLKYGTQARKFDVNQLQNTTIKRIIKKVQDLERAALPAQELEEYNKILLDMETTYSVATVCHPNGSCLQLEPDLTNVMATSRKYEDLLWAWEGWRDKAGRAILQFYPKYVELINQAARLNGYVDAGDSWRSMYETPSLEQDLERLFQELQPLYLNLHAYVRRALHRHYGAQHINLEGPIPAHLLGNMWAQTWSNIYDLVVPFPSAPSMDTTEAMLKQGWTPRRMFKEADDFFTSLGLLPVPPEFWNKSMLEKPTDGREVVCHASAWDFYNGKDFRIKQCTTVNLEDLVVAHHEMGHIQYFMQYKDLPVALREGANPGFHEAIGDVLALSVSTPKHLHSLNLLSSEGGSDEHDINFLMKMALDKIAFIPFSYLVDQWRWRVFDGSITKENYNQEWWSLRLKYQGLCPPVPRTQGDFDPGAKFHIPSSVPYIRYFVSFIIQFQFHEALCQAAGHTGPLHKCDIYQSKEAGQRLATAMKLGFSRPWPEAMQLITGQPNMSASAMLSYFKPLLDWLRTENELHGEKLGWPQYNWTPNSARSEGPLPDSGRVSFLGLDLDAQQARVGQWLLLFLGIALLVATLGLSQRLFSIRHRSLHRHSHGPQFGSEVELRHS
T3 sequence (Q9UBX1 271-484): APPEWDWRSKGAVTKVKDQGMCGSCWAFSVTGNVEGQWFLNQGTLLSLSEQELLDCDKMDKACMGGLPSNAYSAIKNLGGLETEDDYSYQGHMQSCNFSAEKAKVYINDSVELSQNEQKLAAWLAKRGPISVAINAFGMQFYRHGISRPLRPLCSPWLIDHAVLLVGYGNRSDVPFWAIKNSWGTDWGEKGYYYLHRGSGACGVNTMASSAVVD

## Cc1ccc(N2CCN(C)CC2)cc1C(=O)NC1(c2cc(-c3cnn(C)c3)nc3ccccc23)CC1 [Compound 4]
In vitro
  fraction unbound: 0.176
CYP1A2
  pIC50: 4.14
[1]
  inhibition at 30 µM: -6%
[2]; bovine, cell culture medium (2% HI-FBS in DMEM), media: 2% HI-FBS in DMEM, n = 4, read-out: Fu (CV)
  fraction unbound: 0.749
[2]; dNHBE medium, read-out: fraction unbound in the dNHBE medium
  fraction unbound: 0.916
Human Thrombin
  pIC50: < 4.00
L-Type Ca (Diltiazem)
  % inhibition: 10%
Human Cathepsin F
  pIC50: < 4.00
Dopamine Transporter
  inhibition at 30 µM: 8%
hCoV-229E_PLpro2
  pKi: < 5.00
  activity on 229E PL^pro: nearly inactive
[3]
  pIC50: < 4.00
[4]
  inhibition at 30 µM: 14%
CYP3A4
  pIC50: < 4.52
